Read-outs that look alike come from different tables or passages of the source.
Experiments:
SAE1 [1] = target: SAE1 (Homo sapiens (Human), UniProt Q9UBE0+Q9UBT2); assay: SAE High Throughput Biochemical Assay (HTRF), 15 min preincubation; conditions: read-out: 15 min preincubation HTRF IC50 (μM) Ave, SAE1 12.5 nM, ATP 100 μM
How it was run: (§1)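 SAE1 (12.5 nM) was preincubated with compound for 15 min at RT in HEPES pH 7.5, 0.1% BSA, 10 mM MgCl2. The reaction was then started with SUMO-GST and UBC9-His (40 nM each) plus 100 μM ATP for 45 min. After KF stop, HTRF (anti-GST-XL665/anti-His-EuK) was read at 2 h and overnight; some compounds were tested singly at 25 micromolar as percent of control.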

SAE1 [2] = target: SAE1 (Homo sapiens (Human), UniProt Q9UBT2); assay: as above; conditions: SAE1 12.5 nM, ATP 100 μM
How it was run: as §1

[3] = tested on: sumoylation levels (SUMO 2/3 conjugates) in HCT-116 cells; assay: HCT-116 4 Hour Cell Assay (Western, SUMO 2/3 conjugates); type: cell-based; conditions: 4 h treatment, Anti-Sumo 2-3 immunoblot, read-out: HCT-116 Western 4 h IC50 (μM) Ave
How it was run: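 Cells treated 4 h with 11 three-fold dilutions from 25 μM; lysed in RIPA with NEM and Benzonase. Non-reducing SDS-PAGE immunoblot with anti-SUMO 2/3 mAb, IRDye fluorescent detection; conjugate signal normalized to total protein stain, IC50 from quantified bands.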

[4] = Plasma protein binding, equilibrium dialysis, mouse plasma; type: in vitro ADME; conditions: 5 hours at 37° C., read-out: PPB % bound Mouse (converted)
Procedure: (§2) The compounds of interest were evaluated for various PK parameters. Specifically CACO permeability/efflux and plasma protein binding (PPP) were determined. Stock solutions were prepared at 10 mM in DMSO for test and reference compounds. Aliquots of the stock solution were diluted to 500× of final concentration (0.5 mM) with DMSO, then further diluted upon the addition of bank PE3-buffer to 20× of final concentration (20 μM). Then test and reference compounds were prepared in plasma at 1 μM. For 0 hour incubation: 25 μL of the plasma spiked with test and reference compounds was transferred into a 96-well sample preparation plate, and then 25 μL blank PB-buffer was added. The samples were quenched by 200 μL of IS solution to prepare [Initial]0h samples. For 5 hours incubation: 100 μL of the plasma spiking with test and reference compounds was loaded on donor side, and 100 μL of blank PB-buffer were loaded on receiver side of the equilibrium dialysis device. Samples were incubated in an air-bath shaker (60 rpm) for 5 hours at 37° C. After 5 hours incubation, 25 μL of samples (from both the donor sides and receiver sides of the dialysis apparatus) was aspirated and added into new sample preparation plates, separately. 25 μL of blank PB-buffer was added to donor side samples and 25 μL of blank plasma was added to receiver side samples to balance the matrix. The samples were quenched with 200 μL of IS solution. The assay plate was shaken at the vibrator (Hangzhou Allsheng, MX100-4A) for 10 min (600 rpm) and then centrifuged at 5,594×g for 15 min (Thermo Multifuge×3R). An aliquot of the 50 μL supernatant was taken from each well and diluted by 50 μL distilled water, then analyzed by UPLC-MS/MS.

[5] = Plasma protein binding, equilibrium dialysis, rat plasma; type: in vitro ADME; conditions: 5 hours at 37° C., read-out: PPB % bound Rat (converted)
Procedure: as §2

[6] = Plasma protein binding, equilibrium dialysis, human plasma; type: in vitro ADME; conditions: 5 hours at 37° C., read-out: PPB % bound Human (converted)
Procedure: as §2

[7] = Plasma protein binding, equilibrium dialysis, dog plasma; type: in vitro ADME; conditions: 5 hours at 37° C., read-out: PPB % bound Dog (converted)
Procedure: as §2

[8] = Caco-2 permeability/efflux; type: in vitro ADME; conditions: human, Caco-2, pH 7.4; B-A / A-B
Procedure: (§3) Caco-2 cells were obtained from American Tissue Culture Collection (Rockville, MD). The cells were maintained in Modified Eagle's medium (MEM), containing 10% heat-inactivated fetal bovine serum (FBS), and 1% non-essential amino acids, in CO2 at 37° C. Cells were seeded on polycarbonate filter inserts (Millipore, CAT #PSHT 010 R5). The cells were cultured for 21-28 days prior to the permeability experiments. The Lucifer Yellow permeability was checked before and after the assay. Compounds were dissolved at 10 mM in 100% dimethyl sulfoxide (DMSO) and diluted for studies in Hanks Balanced Salt Solution (HBSS, Invitrogen, Cat #14025-092) with 25 mM HEPES, pH 7.4. Compounds were tested at 10 µM in both the apical-to-basolateral (A-B) and basolateral-to-apical (B-A) directions, incubations were conducted at 37° C. for 90 min. At the end of incubation, samples were diluted by assay buffer, and analyzed by LC-MS/MS. The concentrations of the compounds were quantified by standard curve. The first comparator example (Comp. Ex. 1) is the chloro substituted thienodihydropyridine

Caco-2 cells = assay: Caco-2 permeability/efflux; type: in vitro ADME; conditions: 10 uM, 37° C., 90 min, pH 7.4
Procedure: as §3

Sequence of SAE1 (Homo sapiens (Human), UniProt Q9UBE0+Q9UBT2) (Q9UBE0 whole entry): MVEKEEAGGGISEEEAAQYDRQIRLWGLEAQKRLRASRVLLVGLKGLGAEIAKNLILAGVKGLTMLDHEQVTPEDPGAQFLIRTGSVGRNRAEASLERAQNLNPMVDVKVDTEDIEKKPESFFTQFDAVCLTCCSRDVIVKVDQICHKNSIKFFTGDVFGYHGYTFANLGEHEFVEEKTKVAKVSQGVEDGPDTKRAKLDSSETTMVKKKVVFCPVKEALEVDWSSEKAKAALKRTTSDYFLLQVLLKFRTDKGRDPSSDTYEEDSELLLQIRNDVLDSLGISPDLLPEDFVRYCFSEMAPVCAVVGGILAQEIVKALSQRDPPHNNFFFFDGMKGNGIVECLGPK
Sequence of SAE1 (Homo sapiens (Human), UniProt Q9UBE0+Q9UBT2) (Q9UBT2 whole entry): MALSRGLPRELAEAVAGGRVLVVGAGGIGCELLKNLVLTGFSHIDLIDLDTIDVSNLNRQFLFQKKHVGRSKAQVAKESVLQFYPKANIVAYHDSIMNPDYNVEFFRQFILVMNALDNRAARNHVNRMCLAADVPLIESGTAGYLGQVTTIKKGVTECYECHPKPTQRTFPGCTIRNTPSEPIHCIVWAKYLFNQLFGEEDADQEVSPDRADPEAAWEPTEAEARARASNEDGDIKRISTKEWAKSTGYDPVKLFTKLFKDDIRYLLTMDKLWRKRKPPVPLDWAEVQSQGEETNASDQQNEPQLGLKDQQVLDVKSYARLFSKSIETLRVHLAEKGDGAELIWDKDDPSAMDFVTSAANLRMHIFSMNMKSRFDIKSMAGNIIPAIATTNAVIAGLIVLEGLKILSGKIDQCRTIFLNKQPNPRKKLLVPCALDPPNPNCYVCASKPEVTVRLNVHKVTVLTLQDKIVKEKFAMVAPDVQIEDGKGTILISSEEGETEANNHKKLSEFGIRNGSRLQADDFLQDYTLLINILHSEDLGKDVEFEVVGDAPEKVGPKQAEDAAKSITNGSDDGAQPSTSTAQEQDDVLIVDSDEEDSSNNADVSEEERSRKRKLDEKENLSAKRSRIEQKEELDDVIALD
Sequence of SAE1 (Homo sapiens (Human), UniProt Q9UBT2) (Q9UBE0 whole entry): as the sequence (Q9UBE0 whole entry) above
Sequence of SAE1 (Homo sapiens (Human), UniProt Q9UBT2) (Q9UBT2 whole entry): as the sequence (Q9UBT2 whole entry) above

IC50 [3] [µM] | IC50 ([3]; Homo sapiens, HCT-116, 4 h) [µM] | fraction unbound at 5 h, 1 μM [4] | fraction unbound at 5 h, 1 μM [5] | fraction unbound at 5 h, 1 μM [6] | fraction unbound at 5 h, 1 μM [7] | efflux ratio at 90 min, 10 μM [8] | Caco-2 apparent permeability (Papp) (Caco-2 cells; apical-to-basolateral) | Caco-2 apparent permeability (Papp) (Caco-2 cells; basolateral-to-apical) | SMILES | IC50 (SAE1 [1]) [µM] | IC50 (SAE1 [2]) [nM]
0.18 | 0.101 | 0.026 | 0.051 | 0.028 | 0.013 | 2 | 6 10^-6 cm/s | 14 10^-6 cm/s | CCn1cc(-c2c(F)cccc2[C@@H]2CN(C(=O)/C=C/CNC)Cc3sc(C#N)c(C)c32)c(C(F)(F)F)n1 [Example 217, (S, E)-4-(2-(1-ethyl-3-(trifluoromethyl)-1 H-pyrazol-4-yl)-3-fluorophenyl)-3-methyl-6-(4-(methylamino)but-2-enoyl)-4,5,6,7-tetrahydrothieno[2,3-c]pyridine-2-carbonitrile] | 0.13 | 150
– | 0.0856 | 0.023 | – | 0.04 | 0.02 | 1 | 15 10^-6 cm/s | 20 10^-6 cm/s | CCn1cc(-c2c(F)cccc2[C@@H]2CN(C(=O)/C=C/CN(C)C)Cc3sc(C#N)cc32)c(C(F)(F)F)n1 [Example 215, (S,E)-6-(4-(dimethylamino)but-2-enoyl)-4-(2-(1-ethyl-3-(trifluoromethyl)-1 H-pyrazol-4-yl)-3-fluorophenyl)-4,5,6,7-tetrahydrothieno[2,3-c]pyridine-2-carbonitrile] | 1.35 | –

From US20240360148A1 (SUVALENT THERAPEUTICS, INC., priority 2021, published 2024)
